Results on 30 molecules are retold here after patent publication US8143408B2, “N-(8-heteroaryltetrahydronaphtalene-2yl) or N-(5-heteroarylchromane-3-yl) carboxamide derivatives for the treatment of pain” (AstraZeneca AB, priority 2007, dated 2012).

For the assay, the target named is T1, Nav1.7 voltage-gated sodium channel (Homo sapiens, UniProt Q15858).
T1 construct: Gene(s) encoding the full-length protein of the voltage-gated sodium channel of interest are cloned and expressed; expressed in transfected cells
T1 sequence (Q15858 whole entry): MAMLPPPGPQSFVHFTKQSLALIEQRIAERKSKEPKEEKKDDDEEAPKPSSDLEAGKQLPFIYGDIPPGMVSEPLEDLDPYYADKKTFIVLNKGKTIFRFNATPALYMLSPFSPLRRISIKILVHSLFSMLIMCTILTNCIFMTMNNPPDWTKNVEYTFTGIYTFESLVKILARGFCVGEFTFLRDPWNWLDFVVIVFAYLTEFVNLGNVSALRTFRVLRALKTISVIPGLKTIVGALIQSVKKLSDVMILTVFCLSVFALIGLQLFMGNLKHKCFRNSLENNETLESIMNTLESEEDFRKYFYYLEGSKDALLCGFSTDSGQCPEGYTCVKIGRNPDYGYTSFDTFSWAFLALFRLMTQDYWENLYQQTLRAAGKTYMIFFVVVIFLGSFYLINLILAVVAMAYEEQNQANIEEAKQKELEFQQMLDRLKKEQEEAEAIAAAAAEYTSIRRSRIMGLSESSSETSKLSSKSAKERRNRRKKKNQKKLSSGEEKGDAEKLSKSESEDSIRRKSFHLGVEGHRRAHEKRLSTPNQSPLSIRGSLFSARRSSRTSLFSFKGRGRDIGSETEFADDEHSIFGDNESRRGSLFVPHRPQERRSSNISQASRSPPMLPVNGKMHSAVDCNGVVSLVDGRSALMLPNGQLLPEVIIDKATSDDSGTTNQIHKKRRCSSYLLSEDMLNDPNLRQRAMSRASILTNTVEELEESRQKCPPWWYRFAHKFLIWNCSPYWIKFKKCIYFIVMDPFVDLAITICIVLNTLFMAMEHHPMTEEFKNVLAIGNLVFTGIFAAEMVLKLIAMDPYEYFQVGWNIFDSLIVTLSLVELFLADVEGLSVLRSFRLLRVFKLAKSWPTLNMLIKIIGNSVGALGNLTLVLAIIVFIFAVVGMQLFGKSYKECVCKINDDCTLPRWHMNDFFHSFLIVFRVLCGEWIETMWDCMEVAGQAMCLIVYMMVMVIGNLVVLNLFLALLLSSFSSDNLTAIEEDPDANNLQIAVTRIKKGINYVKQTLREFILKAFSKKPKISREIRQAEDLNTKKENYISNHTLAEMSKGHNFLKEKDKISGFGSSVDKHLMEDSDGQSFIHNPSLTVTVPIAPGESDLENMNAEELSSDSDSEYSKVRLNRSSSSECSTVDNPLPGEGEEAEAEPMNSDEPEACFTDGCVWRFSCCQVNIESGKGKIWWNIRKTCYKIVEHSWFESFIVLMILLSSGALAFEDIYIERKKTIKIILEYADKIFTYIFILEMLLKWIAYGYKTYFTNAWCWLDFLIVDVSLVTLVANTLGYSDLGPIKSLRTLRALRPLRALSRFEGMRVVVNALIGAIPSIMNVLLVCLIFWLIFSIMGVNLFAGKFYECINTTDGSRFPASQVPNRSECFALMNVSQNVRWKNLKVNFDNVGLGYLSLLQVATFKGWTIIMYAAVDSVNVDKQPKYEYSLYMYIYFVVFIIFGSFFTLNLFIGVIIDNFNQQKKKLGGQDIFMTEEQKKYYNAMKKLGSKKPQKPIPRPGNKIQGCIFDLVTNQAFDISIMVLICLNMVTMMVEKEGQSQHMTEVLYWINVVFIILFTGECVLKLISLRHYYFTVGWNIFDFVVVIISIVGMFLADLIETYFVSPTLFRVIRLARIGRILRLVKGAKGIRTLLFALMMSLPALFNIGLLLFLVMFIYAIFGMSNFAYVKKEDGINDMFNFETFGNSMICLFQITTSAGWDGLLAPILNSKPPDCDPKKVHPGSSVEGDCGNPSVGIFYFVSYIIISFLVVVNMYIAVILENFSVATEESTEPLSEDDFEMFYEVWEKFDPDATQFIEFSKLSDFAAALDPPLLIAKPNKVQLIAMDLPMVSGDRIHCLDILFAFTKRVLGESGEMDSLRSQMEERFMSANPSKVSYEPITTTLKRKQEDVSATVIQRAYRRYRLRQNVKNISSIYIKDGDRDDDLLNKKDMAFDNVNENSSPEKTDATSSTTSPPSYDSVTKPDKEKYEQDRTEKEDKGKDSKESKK
Nature of the assay: Whole-cell voltage clamp electrophysiology assay. Particulars: cells stably expressing the voltage-gated sodium channel of interest. The assay is classed as cell-based. The gist of the method:
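Cells expressing full-length channel, exposed to drug by integrated pipetting on automated patch-clamp platforms or by microperfusion in conventional whole-cell patch clamp. Channels activated by a voltage protocol depolarising from a defined holding potential; buffers per platform manufacturer.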
Consider `Cc1cc(-c2cccc3c2C[C@H](NC(=O)c2ccc(OC4CCCOC4)nc2)CO3)cnc1F` (stereo partly drawn) [Example 151, N-[(3S)-5-(6-fluoro-5-methylpyridin-3-yl)-3,4-dihydro-2H-chromen-3-yl]-6-(tetrahydro-2H-pyran-3-yloxy)nicotinamide], for which the IC50 is 0.251 µM.

`CCCCn1ccc(C(=O)N[C@@H]2COc3cccc(-c4cnc(F)c(C)c4)c3C2)cc1=O` [Example 152, 1-butyl-N-[(3S)-5-(6-fluoro-5-methylpyridin-3-yl)-3,4-dihydro-2H-chromen-3-yl]-2-oxo-1,2-dihydropyridine-4-carboxamide] showed an IC50 of 1.26 µM.

Molecule `Cc1cc(-c2cccc3c2C[C@H](NC(=O)c2cnc(OC4CCCOC4)nc2)CO3)cnc1F` (stereo partly drawn) [Example 153, N-[(3S)-5-(6-fluoro-5-methylpyridin-3-yl)-3,4-dihydro-2H-chromen-3-yl]-2-(tetrahydro-2H-pyran-3-yloxy)pyrimidine-5-carboxamide] showed an IC50 of 0.631 µM.

For the molecule `COc1ncc(-c2cccc3c2C[C@@H](NC(=O)c2ccc(OC4CCOCC4)nc2)CC3)cn1` [Example 154, N-[(2S)-8-(2-methoxypyrimidin-5-yl)-1,2,3,4-tetrahydronaphthalen-2-yl]-6-(tetrahydro-2H-pyran-4-yloxy)nicotinamide], the half-maximal inhibitory concentration (IC50) was 6.31 µM.

On to `Cc1ncc(-c2cccc3c2C[C@H](NC(=O)c2ccc(OC4CCOCC4)nc2)CO3)cn1` [Example 155, N-[(3S)-5-(2-methylpyrimidin-5-yl)-3,4-dihydro-2H-chromen-3-yl]-6-(tetrahydro-2H-pyran-4-yloxy)nicotinamide], for which the IC50 was 1.26 µM.

In turn, `COc1ncc(-c2cccc3c2C[C@H](NC(=O)c2ccc(OC4CCOCC4)nc2)CC3)cn1` [Example 156, N-[(2R)-8-(2-methoxypyrimidin-5-yl)-1,2,3,4-tetrahydronaphthalen-2-yl]-6-(tetrahydro-2H-pyran-4-yloxy)nicotinamide] showed an IC50 of 2 µM. This IC50 lies about 1.6-fold higher than the previous one.

In the case of `COc1ncc(-c2cccc3c2C[C@H](NC(=O)c2ccc(OC4CCCOC4)nc2)CO3)cn1` (stereo partly drawn) [Example 157, N-[(3S)-5-(2-methoxypyrimidin-5-yl)-3,4-dihydro-2H-chromen-3-yl]-6-(tetrahydro-2H-pyran-3-yloxy)nicotinamide], inhibition was half-maximal at 1 µM (IC50).

`COc1ncc(-c2cccc3c2C[C@H](NC(=O)c2ccc(OC4CCOC4)nc2)CO3)cn1` (stereo partly drawn) [Example 158, N-[(3S)-5-(2-methoxypyrimidin-5-yl)-3,4-dihydro-2H-chromen-3-yl]-6-(tetrahydrofuran-3-yloxy)nicotinamide]: the IC50 was 3.98 µM.

Molecule `Cc1ncc(-c2cccc3c2C[C@H](NC(=O)c2ccc(OC4CCOC4)nc2)CC3)cn1` (stereo partly drawn) [Example 159, N-[(2R)-8-(2-methylpyrimidin-5-yl)-1,2,3,4-tetrahydronaphthalen-2-yl]-6-(tetrahydrofuran-3-yloxy)nicotinamide] showed a half-maximal inhibitory concentration (IC50) of 6.31 µM.

Take `Cc1ncc(-c2cccc3c2C[C@H](NC(=O)c2ccc(OC4CCCOC4)nc2)CC3)cn1` (stereo partly drawn) [Example 160, N-[(2R)-8-(2-methylpyrimidin-5-yl)-1,2,3,4-tetrahydronaphthalen-2-yl]-6-(tetrahydro-2H-pyran-3-yloxy)nicotinamide]: the IC50 was 3.16 µM.

With `Cc1ncc(-c2cccc3c2C[C@H](NC(=O)c2ccc(OCC4CCCO4)nc2)CC3)cn1` (stereo partly drawn) [Example 161, N-[(2R)-8-(2-methylpyrimidin-5-yl)-1,2,3,4-tetrahydronaphthalen-2-yl]-6-(tetrahydrofuran-2-ylmethoxy)nicotinamide], the IC50 was 7.94 µM.

Molecule `COc1ncc(-c2cccc3c2C[C@H](NC(=O)c2ccc(OCCOCC(F)(F)F)nc2)CC3)cn1` [Example 162, N-[(2R)-8-(2-methoxypyrimidin-5-yl)-1,2,3,4-tetrahydronaphthalen-2-yl]-6-[2-(2,2,2-trifluoroethoxy)ethoxy]nicotinamide] gave an IC50 of 0.501 µM.

Take `COc1ncc(-c2cccc3c2C[C@H](NC(=O)c2ccc(OCCOCC(F)(F)F)nc2)CO3)cn1` [Example 163, N-[(3S)-5-(2-methoxypyrimidin-5-yl)-3,4-dihydro-2H-chromen-3-yl]-6-[2-(2,2,2-trifluoroethoxy)ethoxy]nicotinamide]: half-maximal inhibition (IC50) required 0.0398 µM. Against the preceding molecule, the IC50 is about 13-fold lower.

Turning to `O=C(N[C@@H]1CCc2cccc(-c3cccnc3F)c2C1)c1ccc(OCC2COCCO2)nc1` (stereo partly drawn) [Example 164, 6-(1,4-dioxan-2-ylmethoxy)-N-[(2R)-8-(2-fluoropyridin-3-yl)-1,2,3,4-tetrahydronaphthalen-2-yl]nicotinamide], the IC50 was 1 µM.

For the molecule `COc1cc(-c2cccc3c2C[C@H](NC(=O)c2ccc(OCC4COCCO4)nc2)CO3)ccn1` (stereo partly drawn) [Example 165, 6-(1,4-dioxan-2-ylmethoxy)-N-[(3S)-5-(2-methoxypyridin-4-yl)-3,4-dihydro-2H-chromen-3-yl]nicotinamide], the IC50 was 0.158 µM.

`COc1ncc(-c2cccc3c2C[C@H](NC(=O)c2ccc(OCC4COCCO4)nc2)CO3)cc1F` (stereo partly drawn) [Example 166, 6-(1,4-dioxan-2-ylmethoxy)-N-[(3S)-5-(5-fluoro-6-methoxypyridin-3-yl)-3,4-dihydro-2H-chromen-3-yl]nicotinamide]: the IC50 is 0.501 µM.

In the case of `COc1ncc(-c2cccc3c2C[C@H](NC(=O)c2ccc(C(=O)NCCC(F)(F)F)nc2)CC3)cn1` [Example 167, N^5-[(2R)-8-(2-methoxypyrimidin-5-yl)-1,2,3,4-tetrahydronaphthalen-2-yl]-N^2-(3,3,3-trifluoropropyl)pyridine-2,5-dicarboxamide], 0.398 µM corresponded to half-maximal inhibition (IC50). The IC50 values of the last two molecules are within 1.5-fold of each other.

In turn, `CC#CCOc1ccc(C(=O)N[C@@H]2CCc3cccc(-c4cnc(OC)nc4)c3C2)cn1` [Example 168, 6-(but-2-yn-1-yloxy)-N-[(2R)-8-(2-methoxypyrimidin-5-yl)-1,2,3,4-tetrahydronaphthalen-2-yl]nicotinamide] showed an IC50 of 6.31 µM.

Molecule `O=C(N[C@@H]1COc2cccc(-c3ccc4nccn4c3)c2C1)c1ccc(OC2CCOCC2)nc1` [Example 169, N-[(3S)-5-imidazo[1,2-a]pyridin-6-yl-3,4-dihydro-2H-chromen-3-yl]-6-(tetrahydro-2H-pyran-4-yloxy)nicotinamide] showed a half-maximal inhibitory concentration (IC50) of 0.2 µM.

On to `COc1ncc(-c2cccc3c2C[C@H](NC(=O)c2ccc(C(=O)NC4CCC(F)(F)CC4)nc2)CO3)cn1` [Example 170, N^2-(4,4-difluorocyclohexyl)-N^5-[(3S)-5-(2-methoxypyrimidin-5-yl)-3,4-dihydro-2H-chromen-3-yl]pyridine-2,5-dicarboxamide], for which the IC50 was 0.251 µM.

In the case of `COc1ncc(-c2cccc3c2C[C@H](NC(=O)c2ccc(C(=O)NCCCC(F)(F)F)nc2)CO3)cn1` [Example 171, N^5-[(3S)-5-(2-methoxypyrimidin-5-yl)-3,4-dihydro-2H-chromen-3-yl]-N^2-(4,4,4-trifluorobutyl)pyridine-2,5-dicarboxamide], the IC50 was 0.126 µM. Against the preceding molecule, the IC50 is about 2-fold lower.

The molecule `COc1ncc(-c2cccc3c2C[C@H](NC(=O)c2ccnc(OCCOCC(F)(F)F)c2)CO3)cn1` [Example 172, N-[(3S)-5-(2-methoxypyrimidin-5-yl)-3,4-dihydro-2H-chromen-3-yl]-2-[2-(2,2,2-trifluoroethoxy)ethoxy]isonicotinamide] had an IC50 of 0.2 µM. This IC50 lies about 1.6-fold higher than the previous one.

Consider `Cc1ncc(-c2cccc3c2C[C@H](NC(=O)c2ccc(C(=O)N(C)CC(F)(F)F)nc2)CO3)cn1` [Example 173, N^2-methyl-N^5-[(3S)-5-(2-methylpyrimidin-5-yl)-3,4-dihydro-2H-chromen-3-yl]-N^2-(2,2,2-trifluoroethyl)pyridine-2,5-dicarboxamide], for which the IC50 was 1.58 µM.

The molecule `CCc1ncc(-c2cccc3c2C[C@H](NC(=O)c2ccc(C(=O)NCCC(F)(F)F)nc2)CO3)cn1` [Example 174, N^5-[(3S)-5-(2-ethylpyrimidin-5-yl)-3,4-dihydro-2H-chromen-3-yl]-N^2-(3,3,3-trifluoropropyl)pyridine-2,5-dicarboxamide] had an IC50 of 0.2 µM.

Turning to `CS(=O)(=O)c1ccc(-c2cccc3c2C[C@H](NC(=O)c2ccc(OCCOCC(F)(F)F)nc2)CO3)cn1` [Example 175, N-{(3S)-5-[6-(methylsulfonyl)pyridin-3-yl]-3,4-dihydro-2H-chromen-3-yl}-6-[2-(2,2,2-trifluoroethoxy)ethoxy]nicotinamide], it took 2.51 µM to reach half-maximal inhibition (IC50).

In turn, `N#Cc1ccc(-c2cccc3c2C[C@H](NC(=O)c2ccc(OCCOCC(F)(F)F)nc2)CO3)cn1` [Example 176, N-[(3S)-5-(6-cyanopyridin-3-yl)-3,4-dihydro-2H-chromen-3-yl]-6-[2-(2,2,2-trifluoroethoxy)ethoxy]nicotinamide] gave a concentration for half-maximal inhibition (IC50) of 0.126 µM. This IC50 is about 20-fold lower than that of the molecule before.

On to `O=C(N[C@@H]1COc2cccc(-c3cnc(C4CC4)nc3)c2C1)c1ccc(OCCOCC(F)(F)F)nc1` [Example 177, N-[(3S)-5-(2-cyclopropylpyrimidin-5-yl)-3,4-dihydro-2H-chromen-3-yl]-6-[2-(2,2,2-trifluoroethoxy)ethoxy]nicotinamide], for which the IC50 is 0.0501 µM. Compared with the last molecule, the IC50 is about 2.5-fold lower.

As to `CCc1ncc(-c2cccc3c2C[C@H](NC(=O)c2ccc(OCCOCC(F)(F)F)nc2)CO3)cn1` [Example 178, N-[(3S)-5-(2-ethylpyrimidin-5-yl)-3,4-dihydro-2H-chromen-3-yl]-6-[2-(2,2,2-trifluoroethoxy)ethoxy]nicotinamide], half-maximal inhibition (IC50) was put at 0.0631 µM.

`COc1ncc(-c2cccc3c2C[C@H](NC(=O)c2ccc(C(=O)NCCC(F)(F)F)nc2)CO3)cc1F` [Example 179, N^5-[(3S)-5-(5-fluoro-6-methoxypyridin-3-yl)-3,4-dihydro-2H-chromen-3-yl]-N^2-(3,3,3-trifluoropropyl)pyridine-2,5-dicarboxamide] showed an IC50 of 0.2 µM.

Consider `COc1ncc(-c2cccc3c2C[C@H](NC(=O)c2ccc(OCCOCC(F)(F)F)nc2)CO3)cc1F` [Example 180, N-[(3S)-5-(5-fluoro-6-methoxypyridin-3-yl)-3,4-dihydro-2H-chromen-3-yl]-6-[2-(2,2,2-trifluoroethoxy)ethoxy]nicotinamide], for which half-maximal inhibition (IC50) was put at 0.316 µM.

For orientation: IC50 means the concentration needed to halve the response being measured. Read a high IC50 as lower potency.
